One experiment deals with T1, MKK4 (Homo sapiens, UniProt P45985).
T1 sequence (P45985 1-399): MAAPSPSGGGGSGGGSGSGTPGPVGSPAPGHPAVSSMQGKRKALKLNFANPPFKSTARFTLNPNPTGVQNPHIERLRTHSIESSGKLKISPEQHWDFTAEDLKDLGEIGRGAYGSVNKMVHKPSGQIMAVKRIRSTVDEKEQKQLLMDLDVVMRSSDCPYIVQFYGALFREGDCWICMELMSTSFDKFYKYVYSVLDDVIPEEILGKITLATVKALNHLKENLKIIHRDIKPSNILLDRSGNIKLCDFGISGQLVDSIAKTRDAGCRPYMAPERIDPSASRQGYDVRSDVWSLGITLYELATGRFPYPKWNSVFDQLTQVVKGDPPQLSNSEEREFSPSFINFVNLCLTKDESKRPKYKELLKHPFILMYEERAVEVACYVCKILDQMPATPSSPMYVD
To be noted: read-out: Selectivity: MKK4 activity IC50; cited from earlier work.

Another experiment has as its target ERK1 (Homo sapiens, UniProt P27361). To be noted: read-out: Selectivity: ERK1 activity IC50; cited from earlier work.
The target in experiment [1] is MEK ½ (Homo sapiens, UniProt P36507). To be noted: second value, read-out: Reported Potency IC50; cited from earlier work.
MEK ½ (Homo sapiens, UniProt P36507), sequence (P36507 whole entry): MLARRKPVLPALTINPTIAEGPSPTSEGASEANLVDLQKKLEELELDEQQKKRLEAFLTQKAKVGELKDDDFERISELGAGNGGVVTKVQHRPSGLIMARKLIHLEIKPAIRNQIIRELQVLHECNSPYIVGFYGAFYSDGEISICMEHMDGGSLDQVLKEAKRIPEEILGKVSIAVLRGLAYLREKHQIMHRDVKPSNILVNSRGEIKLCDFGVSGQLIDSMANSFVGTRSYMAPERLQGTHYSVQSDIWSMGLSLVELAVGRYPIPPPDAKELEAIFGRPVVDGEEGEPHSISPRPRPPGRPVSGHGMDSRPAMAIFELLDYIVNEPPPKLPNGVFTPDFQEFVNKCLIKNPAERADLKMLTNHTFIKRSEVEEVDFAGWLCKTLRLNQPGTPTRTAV
In experiment [2] the target is MEK ½ (Homo sapiens, UniProt Q02750). To be noted: first value, read-out: Reported Potency IC50; cited from earlier work.
MEK ½ (Homo sapiens, UniProt Q02750), sequence (Q02750 whole entry): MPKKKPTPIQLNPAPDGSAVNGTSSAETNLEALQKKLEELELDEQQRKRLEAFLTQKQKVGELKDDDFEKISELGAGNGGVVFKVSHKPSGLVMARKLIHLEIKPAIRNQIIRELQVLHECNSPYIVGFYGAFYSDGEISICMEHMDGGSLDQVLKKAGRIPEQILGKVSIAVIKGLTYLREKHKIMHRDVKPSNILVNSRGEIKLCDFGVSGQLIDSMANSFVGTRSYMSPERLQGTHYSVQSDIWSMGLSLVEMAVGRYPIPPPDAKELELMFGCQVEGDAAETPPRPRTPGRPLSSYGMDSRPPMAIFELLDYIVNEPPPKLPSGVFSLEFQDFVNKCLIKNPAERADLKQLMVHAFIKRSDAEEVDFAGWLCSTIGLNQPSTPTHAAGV
Experiment [3] deals with relevant target and pathway. To be noted: cited from earlier work.
In a further experiment the test system is PKC □. To be noted: read-out: Reported Potency IC50; cited from earlier work.
Another experiment deals with PKC subtypes □, □ and □. To be noted: >uM; cited from earlier work.
The test system of the next experiment is HUVEC. To be noted: 48 hrs, 20 nM VEGF; standard deviation of 10%.
A further experiment deals with angiogenesis. To be noted: in vivo; cited from earlier work.
For experiment [4] the following is noted: Phase III, patients with wet AMD; cited from earlier work.

Bounds are passed on as bounds.

ERK1, sequence (P27361 whole entry, species assumed): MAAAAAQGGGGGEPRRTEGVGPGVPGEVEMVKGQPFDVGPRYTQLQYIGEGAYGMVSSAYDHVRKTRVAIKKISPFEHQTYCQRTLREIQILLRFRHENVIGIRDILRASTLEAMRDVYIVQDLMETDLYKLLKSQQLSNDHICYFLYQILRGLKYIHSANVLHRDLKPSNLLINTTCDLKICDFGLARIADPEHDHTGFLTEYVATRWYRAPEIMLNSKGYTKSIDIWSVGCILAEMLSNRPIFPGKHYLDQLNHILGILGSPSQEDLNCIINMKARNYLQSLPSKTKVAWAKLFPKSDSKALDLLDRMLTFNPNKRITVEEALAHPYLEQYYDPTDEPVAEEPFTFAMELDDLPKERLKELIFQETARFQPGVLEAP
Description for HUVEC: The cellular phenotypes, cell proliferation and/or cell death are measured using viable cell number determination methods. Measurement of cell proliferation and cytotoxicity using the luminescent assay ViaLight™-HS High Sensitivity Cytotoxicity and Cell Proliferation BioAssay Kit from Cambrex (East Rutherford, N.J.) is optimized for HUVECs. Linear detection of cell proliferation or cell survival is possible from as few as 100 and up to 10^6 cells. […] An alternative measurement of both ATP and ADP levels provides a ratio measurement indicating cells proliferation versus cell death.

`N#C/C(=C(/N)Sc1ccc(N)cc1)c1ccccc1C(F)(F)F` [SL327]: the IC50 (commonly the concentration at which inhibition is half-maximal) at MKK4 is greater than 10000 nM; at ERK1 it was greater than 10000 nM; on MEK ½ [1] it was 220 nM; at MEK ½ [2], 180 nM.

For the molecule `C[S+]([O-])c1ccc(-c2nc(-c3ccncc3)c(-c3ccc(F)cc3)[nH]2)cc1` (stereo not drawn) [SB 203580], the “activity against the relevant target and pathway in vivo” value (shortened to “activity … in vivo”) in experiment [3] is recorded as “shown activity”.

Take `Cn1c2ccccc2c2c3c(c4c5ccccc5n(CCC#N)c4c21)CNC3=O` [Go 6976]: the IC50 in the experiment on PKC □ is 2.3 nM. For the same molecule, the “activity … in vivo” value in experiment [3] is on record as “shown activity”. Moreover, the “Selectivity: effect on the kinase activity of PKC subtypes □, □ and □” value in the experiment on PKC subtypes □, □ and □ is recorded as “>uM no effect”.

Take VEGF: the “signal to noise for HUVEC proliferation” value in the experiment on HUVEC came out at 2 fold.

With `Cc1cc(C)c(/C=C2\C(=O)Nc3ccccc32)[nH]1` [SU5416], in [3], the “activity … in vivo” value is on record as “shown activity”. Also, the “angiogenesis in the wound-healing model” value in the experiment on angiogenesis was “block angiogenesis”.

B1: Lucentis: humanized antibody fragment developed at Genentech, designed to bind and inhibit Vascular Endothelial Growth Factor A (antibody, chains of the INN, looked up, V domains shown)
VH: EVQLVESGGGLVQPGGSLRLSCAASGYDFTHYGMNWVRQAPGKGLEWVGWINTYTGEPTYAADFKRRFTFSLDTSKSTAYLQMNSLRAEDTAVYYCAKYPYYYGTSHWYFDVWGQGTLVTVSS
VL: DIQLTQSPSSLSASVGDRVTITCSASQDISNYLNWYQQKPGKAPKVLIYFTSSLHSGVPSRFSGSGSGTDFTLTISSLQPEDFATYYCQQYSTVPWTFGQGTKVEIK
modifications: Fab
As for B1, in [4], the vision entry was “improved vision”.

The values are drawn from patent publication US20090111710A1, “CELLULAR SIGNALING PATHWAY BASED ASSAYS, REAGENTS AND KITS” (Cell NetwoRX LLC, priority 2005, published 2009).
